Laboratory results as given in patent publication US20100227889A1, “Benzimidazole Derivatives” (priority 2006, published 2010).

Each molecule was assayed against T1, human PCaR (Homo sapiens, UniProt P41180) (assay: Assay for intracellular free calcium (inhibition of calcium transients stimulated by extracellular calcium)). Settings: CCL39 fibroblasts stably transfected with human PCaR; "based on the above described assay".
T1 construct: expressed in transfected cells; host or cells: CCL39 fibroblasts (stably transfected)
T1 sequence (P41180 20-1078): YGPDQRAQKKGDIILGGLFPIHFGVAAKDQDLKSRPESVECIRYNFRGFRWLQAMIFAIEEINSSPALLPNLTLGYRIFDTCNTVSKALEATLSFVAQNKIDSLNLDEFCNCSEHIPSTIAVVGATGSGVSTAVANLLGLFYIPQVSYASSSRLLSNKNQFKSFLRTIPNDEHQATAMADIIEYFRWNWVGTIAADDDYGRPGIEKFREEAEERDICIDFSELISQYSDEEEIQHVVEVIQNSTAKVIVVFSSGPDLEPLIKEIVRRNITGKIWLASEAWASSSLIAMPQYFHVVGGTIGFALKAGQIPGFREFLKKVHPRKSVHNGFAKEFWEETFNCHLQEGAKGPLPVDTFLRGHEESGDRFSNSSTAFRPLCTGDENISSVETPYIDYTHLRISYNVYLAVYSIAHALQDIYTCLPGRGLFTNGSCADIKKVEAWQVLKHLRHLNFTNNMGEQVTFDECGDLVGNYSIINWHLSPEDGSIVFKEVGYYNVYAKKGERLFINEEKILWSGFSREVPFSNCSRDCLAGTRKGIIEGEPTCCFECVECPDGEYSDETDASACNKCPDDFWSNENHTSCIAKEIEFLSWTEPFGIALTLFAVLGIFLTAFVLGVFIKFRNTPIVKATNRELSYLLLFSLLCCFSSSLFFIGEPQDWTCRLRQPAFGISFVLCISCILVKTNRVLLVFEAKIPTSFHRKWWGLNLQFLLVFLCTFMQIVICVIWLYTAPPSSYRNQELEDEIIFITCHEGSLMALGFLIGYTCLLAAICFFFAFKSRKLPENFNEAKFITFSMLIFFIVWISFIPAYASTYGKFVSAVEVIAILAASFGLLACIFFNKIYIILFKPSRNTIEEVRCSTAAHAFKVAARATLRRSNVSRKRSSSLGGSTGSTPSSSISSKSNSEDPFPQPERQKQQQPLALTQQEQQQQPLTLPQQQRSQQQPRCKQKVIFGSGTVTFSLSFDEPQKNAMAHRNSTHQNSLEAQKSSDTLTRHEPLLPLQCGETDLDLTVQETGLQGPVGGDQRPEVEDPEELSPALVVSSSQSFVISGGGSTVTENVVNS
Type: cell-based
Protocol: An alternative method to determine antagonism at the PCaR consists in measuring the inhibition of intracellular calcium transients stimulated by extracellular calcium. CCL39 fibroblasts stably transfected with human PCaR are seeded at 40′000 cells/well into 96-well Viewplates and incubated for 24 hours. Medium is then removed and replaced with fresh medium containing 2 μM Fluo-3 AM (Molecular Probes, Leiden, The Netherlands), In routine experiments, cells are incubated at 37° C., 5% CO2 for 1 h. Afterwards, plates are washed twice with mHBS and wells are refilled with 100 μl mHBS containing the test compounds. Incubation is continued at room temperature for 15 minutes. To record changes of intracellular free calcium, plates are transferred to fluorescence-imaging plate reader (Molecular Devices, Sunnyvale, Calif., USA). A baseline consisting in 5 measurements of 0.4 seconds each (laser excitation 488 nm) is recorded. Cells are then stimulated with calcium (2.5 mM final), and fluorescence changes recorded over a period of 3 minutes.

IC50	Structure (SMILES)
3.4 nM	COCCn1c(-c2ccc(C(C)C)cc2)nc2c(Br)c(Cc3cccnc3SC)cc(OC)c21 [Example 1, 4-Bromo-2-(4-isopropyl-phenyl)-7-methoxy-1-(2-methoxy-ethyl)-5-(2-methylsulfanyl-pyridin-3-ylmethyl)-1H-benzoimidazole]
2.6 nM	COCCn1c(-c2ccc(C(C)C)cc2)nc2c(C(F)(F)F)c(Cc3cccnc3[S+](C)[O-])cc(OC)c21 (stereo not shown) [Example 3, 2-(4-Isopropyl-phenyl)-5-(2-methanesulfinyl-pyridin-3-ylmethyl)-7-methoxy-1-(2-methoxy-ethyl)-4-trifluoromethyl-1H-benzoimidazole]
3.2 nM	COCCn1c(-c2ccc(C(C)C)cc2)nc2c(C(F)(F)F)c(Cc3cccnc3OC(C)C)cc(OC)c21 [Example 8, 5-(2-Isopropoxy-pyridin-3-ylmethyl)-2-(4-Isopropyl-phenyl)-7-methoxy-1-(2-methoxy-ethyl)-4-trifluoromethyl-1H-benzoimidazole]
1.8 nM	C#CCOc1ncccc1Cc1cc(OC)c2c(nc(-c3ccc(C(C)C)cc3)n2CCOC)c1C(F)(F)F [Example 9, 2-(4-Isopropyl-phenyl)-7-methoxy-1-(2-methoxy-ethyl)-5-(2-prop-2-ynyloxy-pyridin-3-ylmethyl)-4-trifluoromethyl-1H-benzoimidazole]
